# Results: patent US20240374779A1, “ANTIMICROBIAL ARTICLES, METHODS OF MAKING AND USING SAME” (TERASAKI INSTITUTE FOR BIOMEDICAL INNOVATION, priority 2021, published 2024)
# Assays:
# [1] = hydrogen peroxide release kinetics from microspheres (dissolved oxygen in PBS with catalase); assay type: physicochemical; conditions: early stages (0-3 days); levels decreased gradually
# Method: The hydrogen peroxide release kinetics of the CPO/PLGA MPS were determined indirectly by measuring the dissolved oxygen levels in phosphate buffered saline (PBS) after breaking down the hydrogen peroxide with catalase. Dissolved oxygen levels were measured by an oxygen sensor probe (ISO-OXY-2, World Precision Instruments), which was connected to the free radical analyzer (TBR1025, World Precision Instruments). MPS with different CPO loading and MPS with different dimensions were evaluated. […] Catalase was used to catalyze the decomposition of hydrogen peroxide to water and oxygen. […] After fully flushed, the hypoxic chamber with glass vials containing samples was sealed and placed into a cell culture incubator at 37° C.
# [2] = tested on: C. difficile spores; conditions: similar concentrations (about 100 ppm) of vaporized hydrogen peroxide; cited from earlier work
# [3] = rats; cited from earlier work
structure (smiles),measurement,setting,value
"[Ca+2].[O-][O-] [free CPO, calcium peroxide]",peroxide levels with free CPO in PBS,[1],Elevated peroxide levels
"OO [vaporized hydrogen peroxide, hydrogen peroxide]",time to eradicate C. difficile spores,[2],≤ 20 min
NC(N)=O [Urea],LD50,[3],about 15 g/kg
